Experimental data: patent publication US20140011930A1, “Bio-Renewable Carboxylic Acid Esters and Mixtures Thereof Useful as Plasticizers” (TEKNOR APEX COMPANY, priority 2012, published 2014)

Tests used:
Assay type in all cases: physicochemical
[1] = Hardness (Shore) of PVC compounds (ASTM D-2240)
[2] = Specific Gravity of PVC compounds (ASTM D-792)
[3] = Loop Spew compatibility test (ASTM D-3291)
Procedure: This plasticizer was evaluated in the same formulations as test compounds 1, 2, 3 along with DEHP and Example 1.
PVC compounds were prepared with the plasticizers described in Example 1 and Example 2, and a commercial sample of DEHP, containing standard heat stabilizers, antioxidant and a lubricant. The compounds were evaluated in standard laboratory tests according the following ASTM methods: […]

[4] = Tensile, 100% modulus, elongation of PVC compounds (ASTM D-638); parameters: 100% Modulus: unit not given here
[5] = Dynamic Heat Stability (ASTM D-2538)
[6] = Brittle Point (ASTM D-746)
[7] = % Volatile Loss (ASTM D-1203)
[8] = Oven Stability (210° C.) (ASTM D-1203)
[9] = Gamma irradiation stability (yellowness index YI)
Excerpt: Additional advantages of the compounds of the invention are their low cytotoxicity and resistance to gamma radiation especially when compared to the industry standard of di-2-ethylhexyl phthalate (DEHP). Gamma radiation stability is important since it allows for the convenient sterilization of articles prepared from PVC compound. The key performance standard is non-yellowing of the PVC compound after exposure to gamma radiation. An example of the improvement in gamma stability is shown below.

[10] = PVC Test Compound 59-67 A Gauge
[11] = PVC Test Compound 59-67 A Gauge, DEHP vs Example 1/ESO series
[12] = PVC Test Compound 80-85 C Gauge
[13] = PVC Test Compound 80-85 C Gauge, DEHP vs Example 1/ESO series
[14] = PVC Test Compound 81-85 A Gauge
[15] = PVC Test Compound-Gamma Irradiation Stability-A
[16] = Gamma Radiation = 35 kGys (3.5 Mrads)
[17] = Gamma Radiation = 35 kGys (3.5 Mrads), oven aging 48 hr. at 50° C.

For `CCCCC(CC)COC(=O)c1ccccc1C(=O)OCC(CC)CCCC` (stereo not shown) [DEHP, di-(2-ethylhexyl) phthalate], the “Hardness Shore A (15 sec delay)” value [1, 10] was 60, the “Hardness Shore A (instant)” value [1, 10] was 68 and the “Hardness Shore A (15 sec delay)” value [1, 11] was 56. For the same molecule, the “Hardness Shore A (instant)” value [1, 11] was 60, the “Hardness Shore C (10 sec delay)” value [1, 12] was 85 and the “Hardness Shore C (instant)” value [1, 12] was 93. The “Hardness Shore C (10 sec delay)” value [1, 13] was 85, the “Hardness Shore C (instant)” value [1, 13] was 90 and the “Hardness Shore C (10 sec delay)” value [1, 14] was 83. For the same molecule, the “Hardness Shore C (instant)” value [1, 14] was 90, the “Hardness Shore A (15 sec delay)” value [1, 15] was 86 and the “Hardness Shore A (instant)” value [1, 15] was 91. For the same molecule, the “Specific Gravity” value [2, 10] was 1.16, the “Specific Gravity” value [2, 11] was 1.16 and the “Specific Gravity” value [2, 12] was 1.28. The “Specific Gravity” value [2, 13] was 1.28, the “Specific Gravity” value [2, 14] was 1.23 and the “Specific Gravity” value [2, 15] was 1.24. For the same molecule, the “Loop Spew” value [3, 10] was “None”, the “Loop Spew” value [3, 11] was “None” and the “Loop Spew” value [3, 12] was “None”. The “Loop Spew” value [3, 13] was “None”, the “Loop Spew” value [3, 14] was “None” and the “100% Modulus” value [4, 10] was 554. For the same molecule, the “% Elongation” value [4, 10] was 439%, the “Tensile (psi)” value [4, 10] was 1559 psi and the “100% Modulus” value [4, 11] was 518. For the same molecule, the “% Elongation” value [4, 11] was 451%, the “Tensile (psi)” value [4, 11] was 1564 psi and the “100% Modulus” value [4, 12] was 3440. The “% Elongation” value [4, 12] was 281%, the “Tensile (psi)” value [4, 12] was 3840 psi and the “100% Modulus” value [4, 13] was 3617. The “% Elongation” value [4, 13] was 282%, the “Tensile (psi)” value [4, 13] was 4083 psi and the “100% Modulus” value [4, 14] was 1490. For the same molecule, the “% Elongation” value [4, 14] was 380%, the “Tensile (psi)” value [4, 14] was 2875 psi and the “Dynamic Heat Stability” value [5, 10] was 72 min. For the same molecule, the “Dynamic Heat Stability” value [5, 11] was 54, the “Dynamic Heat Stability” value [5, 12] was 19 min and the “Dynamic Heat Stability” value [5, 13] was 7 min. For the same molecule, the “Dynamic Heat Stability” value [5, 14] was 40 min, the “Brittle Point ° C.” value [6, 10] was −48.5 °C and the “Brittle Point ° C.” value [6, 11] was −50.5 °C. The “Brittle Point ° C.” value [6, 12] was −17.0 °C, the “Brittle Point ° C.” value [6, 13] was −22 °C and the “Brittle Point ° C.” value [6, 14] was −34.5 °C. The “% Volatile Loss” value [7, 10] was 3.54%, the “% Volatile Loss” value [7, 11] was 4.58% and the “% Volatile Loss” value [7, 12] was 1.56%. The “% Volatile Loss” value [7, 13] was 1.67%, the “% Volatile Loss” value [7, 14] was 2.73% and the “Oven Stability (210° C.) Decomposition Failure” value [8, 10] was 50 min. The “Oven Stability (210° C.) Initial Color” value [8, 10] was “Clear”, the “Oven Stability (210° C.) Initial Color Failure” value [8, 10] was 15 min and the “Oven Stability (210° C.) Decomposition Failure” value [8, 11] was 60 min. For the same molecule, the “Oven Stability (210° C.) Initial Color” value [8, 11] was “Clear”, the “Oven Stability (210° C.) Initial Color Failure” value [8, 11] was 15 min and the “Oven Stability (210° C.) Decomposition Failure” value [8, 12] was 50 min. For the same molecule, the “Oven Stability (210° C.) Initial Color” value [8, 12] was “Clear”, the “Oven Stability (210° C.) Initial Color Failure” value [8, 12] was 15 min and the “Oven Stability (210° C.) Decomposition Failure” value [8, 13] was 50 min. For the same molecule, the “Oven Stability (210° C.) Initial Color” value [8, 13] was “Clear”, the “Oven Stability (210° C.) Initial Color Failure” value [8, 13] was 10 min and the “Oven Stability (210° C.) Decomposition Failure” value [8, 14] was 50 min. For the same molecule, the “Oven Stability (210° C.) Initial Color” value [8, 14] was “Clear”, the “Oven Stability (210° C.) Initial Color Failure” value [8, 14] was 15 min and the “Absolute YI After 35 kGys Gamma” value [9, 16] was 12.24. For the same molecule, the “Change in YI from Original After 35 kGys Gamma” value [9, 16] was 5.46, the “Absolute YI After 35 kGys Gamma and Oven Aging (48 hr. at 50° C.)” value [9, 17] was 17.58 and the “Change in YI from Original After 35 kGys Gamma and Oven Aging (48 hr. at 50° C.)” value [9, 17] was 10.80. For the same molecule, the “Absolute YI Original” value ([9]; before irradiation) was 6.78.
